Reference: US9017985B2, “Photosynthetic microorganisms enriched in selenium using selenohydroxy acid compounds, used thereof in nutrition, cosmetics and pharmacy” (Metabolium, priority 2008, dated 2015)

Key:
[1] = diet supplementation; cited from earlier work
[2] = test system: Arthrospira platensis 3054-E0001; assay: Selenium enrichment of Arthrospira platensis microalga cultured with a selenium source, autotrophic conditions; analysis of selenium components; format: cell-based; conditions: 25 mgSe/l added once just after inoculation (T=0); 10 days incubation; mean of triplicate
Protocol: In these tests, the strain used is a strain of Arthrospira platensis 3054-E0001.
The 3054-50001 strain was cultured under autotrophic conditions in the following medium:
(§1) The pH was adjusted to 7.2 and the medium was autoclaved at 121° C. for 15 minutes.
The organic source of selenium, namely 2-hydroxy-4-methylselenobutanoic acid (THD-177, Tetrahedron SAS, France, CAS: 873660-49-2) was administered at a concentration of 25 mg/l on a selenium equivalent basis, i.e. 62.5 mg/l of 2-hydroxy-4-methylselenobutanoic acid.
The inorganic selenium source ([…], sodium selenite) was administered at a concentration of 25 mg/l on a selenium equivalent basis, i.e. 54.4 mg/l of sodium selenite.
The compound containing selenium was added just one time, just after the inoculation with the Arthrospira platensis strain (i.e. T=0).
(§2) After incubation for 10 days, the cell pellet was filtered through a 0.2 micron Nalgene membrane, and the cell retentate was rinsed with physiological saline. The wet cell mass was lyophilized for analysis of the constituents containing selenium (total selenium, selenomethionine and sodium selenite).
(§3) The total selenium was assayed by ICP coupled to detection by mass, after mineralization of the sample. The speciation of the selenium was carried out by high performance liquid chromatography coupled to tandem mass detection, after enzyme digestion of the sample, according to the method described by Lobinsky et al., in Mester, Z. et al. (2006) Annal. Bioanal. Chem. 385: 168-180.
Table 2 below indicates the average values, on a selenium equivalent basis, obtained in triplicate for incubation times of 10 days.
In these tests, the strain used is a strain of Arthrospira platensis 3054-E0001. […]

[3] = test system: Chlorella vulgaris SAG211-11B; assay: Selenium enrichment of Chlorella vulgaris microalga cultured with a selenium source, mixotrophic conditions; analysis of selenium components; format: cell-based; conditions: 20 mgSe/l added once in exponential growth phase; 7 days incubation; mean of triplicate
Protocol: In these tests, the strain used is a strain of Chlorella vulgaris SAG211-11B: an axenic strain originating from the SAG collection of the University of Göttingen (SAG: Sammlung von Algenkulturen der Universität Göttingen [Collection of Alga Cultures of the University of Göttingen]) which was cultured under mixotrophic conditions in the following medium:
as §1
The organic source of selenium, namely 2-hydroxy-4-methylselenobutanoic acid (THD-177, Tetrahedron SAS, France, CAS: 873660-49-2) was administered at a concentration of 20 mg/l on a selenium equivalent basis, i.e. 50 mg/l of 2-hydroxy-4-methylselenobutanoic acid.
The inorganic selenium source ([…], sodium selenite) was administered at a concentration of 20 mg/l on a selenium equivalent basis, i.e. 43.9 mg/l of sodium selenite.
The compound containing selenium was added just one time in the exponential growth phase of the Chlorella vulgaris strain (i.e. 3 days after the inoculation).
as §2, with “7” for “10”, “medium” for “cell pellet”, “membrane (Ref a-PES, diameter 90 mm),” for “membrane,”
as §3
Table 1 below indicates the average values, on a selenium equivalent basis, obtained in triplicate for incubation times of 7 days.

| SMILES | Toxicity compared with an intake in the form of sodium selenite [1] | Se(IV) [2] [mgSe/kg biomass] | SeMethionine [2] [mgSe/kg biomass] | Total Se [2] [mgSe/kg biomass] | Se(IV) [3] [mgSe/kg biomass] | SeMethionine [3] [mgSe/kg biomass] | Total Se [3] [mgSe/kg biomass] |
| --- | --- | --- | --- | --- | --- | --- | --- |
| C[Se]CC[C@H](N)C(=O)O [L(+)-selenomethionine] | much less toxic | – | – | – | – | – | – |
| O=[Se](O)O [NaSe, sodium selenite] | – | 5.1 ± 0.3 | 13 ± 3 | 177 ± 2 | 4.1 ± 0.4 | 29 ± 2 | 144 ± 5 |
